Results from US10098899B2, “Drug with activity against the herpes virus family” (priority 2010, dated 2018).

Legend:
Herpes virus of type II = test: Antiviral activity in Vero cells, unaltered cells, herpes virus of type II; type: cell-based; conditions: for Number (%) of unaltered cells, percent / Number of unaltered cells: Herpes virus of type II, Vero cells, 50 mg/1 of preparation; for Number of unaltered cells: non-infected reference 10000
Method: (§1) Determining Activity Against Herpes Viruses of Type 1 and 11.
(§2) Herpes simplex virus (strain EC) was grown in Vero cells cultured in MEM medium with the addition of 0.2% bovine serum and 50 mg/1 of the preparations under study.

[1] = system: type I herpes simplex virus (strain EC); test: Herpetic pneumonia in white mice: virus titer in lungs (titration on Vero cells); type: in vivo, white non-pedigree mice; conditions: for Virus titer in lungs of mice on day 3 after the infection: day 3 after infection, 50 mg/kg intragastrically, 24 h and 1 h prior to and 24 h and 48 h after infection
Method: Antiviral activity of the inventive substance was determined using the model of pneumonia in white mice caused by type I herpes simplex virus.
Herpes simplex virus of type I (strain EC) was accumulated in Vero cells cultured in MEM medium with the addition of 0.2% bovine serum, 50 μg/ml of gentamicin. Virus titration was performed on Vero cells cultured in 96-well plates. Results were recorded after a pronounced cytopathic effect (CPE) appeared in virus control. The degree of intactness of the cellular monolayer was assessed visually, virus titer was calculated as the reciprocal value of Briggs logarithm of the largest dilution of the source material that is still able to produce visually notable manifestations of CPE in the cell culture (CTD50).
For assessing the virus inhibiting action of the preparations, white non-pedigree mice weighing 12-15 g (“Rappolovo” farm, Leningrad Region) were infected intranasally under a light ether anaesthesia with the herpes simplex virus in the dosage of 106 (CTD50)/0.05 ml. The preparation under study was administered intragastrically in the dosage of 50 mg/kg of weight according to a medical-preventive scheme (24 h and 1 h prior to infection, and 24 h and 48 h after the animals were infected). On day 3 the lungs of the infected animals were removed, homogenized in the presence of 10-fold volume of phosphate buffer and then 10-fold dilutions from 10-1 to 10-6 were prepared thereof. Dilutions of the lungs homogenate were used for infecting the intact culture of Vero cells and for titration of virus progeny. Positive reference was represented by lungs of mice that instead of the studied preparation received physiological solution by intragastric administration, whereas negative reference was represented by lungs of mice that received aciclovir in the dosage of 50 mg/kg of weight according to the same scheme. Each experimental group consisted of 10 animals.

Herpes virus of type I = test: Antiviral activity in Vero cells, unaltered cells, herpes virus of type I; type: cell-based; conditions: 50 mg/1 of preparation; for Number of unaltered cells: non-infected reference 10000
Method: as §1, §2

[2] = system: type I herpes simplex virus (strain EC); test: Herpetic pneumonia in white mice: histologic (morphometric) examination of lungs; type: in vivo, white non-pedigree mice

(2,6-dichlorophenyl)amide salt of carbopentoxysulfanilic acid [The inventive substance]
Number (%) of unaltered cells, percent (Herpes virus of type II): (90%)
Number of unaltered cells (Herpes virus of type II): 9000
antiviral activity compared with aciclovir (in words) (Herpes virus of type II; in particular against the herpes virus of type II): significantly exceeds that of the aciclovir
virus-inhibitory activity at the model of herpetic pneumonia in vivo (in words) ([1]; compared with aciclovir at the same dosage): statistically significant virus-inhibitory activity
Virus titer in lungs of mice on day 3 after the infection [1]: 1.0 ± 0.11 Lg CTD50
Number (%) of unaltered cells, percent (Herpes virus of type I): (80%)
Number of unaltered cells (Herpes virus of type I): 8000
Area of an inflammation focus in section ([2]; term 2 days): 47 ± 7.3
Number of inflammation foci in one animal ([2]; term 2 days): 3
Area of an inflammation focus in section ([2]; term 4 days): 49 ± 12.1
Number of inflammation foci in one animal ([2]; term 4 days): 2
Area of an inflammation focus in section ([2]; term 6 days): 14 ± 5.5
Number of inflammation foci in one animal ([2]; term 6 days): 1

Nc1nc2c(ncn2COCCO)c(=O)[nH]1 [Aciclovir, 2-amino-1,9-dihydro-9-[(2-hydroxyethoxy)methyl]-6H-purine-6-on, reference compound]
Number (%) of unaltered cells, percent (Herpes virus of type II): (70%)
Number of unaltered cells (Herpes virus of type II): 7000
Virus titer in lungs of mice on day 3 after the infection [1]: 1.4 ± 0.34 Lg CTD50
Number (%) of unaltered cells, percent (Herpes virus of type I): (65%)
Number of unaltered cells (Herpes virus of type I): 7000
Area of an inflammation focus in section ([2]; term 2 days): 55 ± 9.4
Number of inflammation foci in one animal ([2]; term 2 days): 8
Area of an inflammation focus in section ([2]; term 4 days): 58 ± 14.7
Number of inflammation foci in one animal ([2]; term 4 days): 3
Area of an inflammation focus in section ([2]; term 6 days): 24 ± 6.4
Number of inflammation foci in one animal ([2]; term 6 days): 3
